Assay results: patent US10479780B2, “Aminopyrazole derivatives” (Chugai Seiyaku Kabushiki Kaisha, priority 2015, dated 2019)

How the values were obtained:
Type in all cases: biochemical
[1] = target: T1, human Src enzyme (Homo sapiens, UniProt P12931); assay: Src enzyme inhibitory activity (time-resolved fluorometry, biotinylated peptide phosphorylation); conditions: biotinylated peptide phosphorylation, read-out: SRC_IC50
T1 construct: purchased Carna Biosciences, Inc. 08-173
Procedure, shortened: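 Compounds were tested for blocking tyrosine phosphorylation of a biotinylated peptide substrate by recombinant human Src. Phosphorylated product was quantified by time-resolved fluorometry using europium cryptate and XL665 conjugates, and IC50 was calculated against the compound-free control.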

[2] = target: T2, human Lck enzyme (Homo sapiens, UniProt P06239); assay: Lck enzyme inhibitory activity (time-resolved fluorometry, biotinylated peptide phosphorylation); conditions: biotinylated peptide phosphorylation, read-out: LCK_IC50
T2 construct: purchased Carna Biosciences, Inc. 08-170
T2 sequence (P06239 whole entry): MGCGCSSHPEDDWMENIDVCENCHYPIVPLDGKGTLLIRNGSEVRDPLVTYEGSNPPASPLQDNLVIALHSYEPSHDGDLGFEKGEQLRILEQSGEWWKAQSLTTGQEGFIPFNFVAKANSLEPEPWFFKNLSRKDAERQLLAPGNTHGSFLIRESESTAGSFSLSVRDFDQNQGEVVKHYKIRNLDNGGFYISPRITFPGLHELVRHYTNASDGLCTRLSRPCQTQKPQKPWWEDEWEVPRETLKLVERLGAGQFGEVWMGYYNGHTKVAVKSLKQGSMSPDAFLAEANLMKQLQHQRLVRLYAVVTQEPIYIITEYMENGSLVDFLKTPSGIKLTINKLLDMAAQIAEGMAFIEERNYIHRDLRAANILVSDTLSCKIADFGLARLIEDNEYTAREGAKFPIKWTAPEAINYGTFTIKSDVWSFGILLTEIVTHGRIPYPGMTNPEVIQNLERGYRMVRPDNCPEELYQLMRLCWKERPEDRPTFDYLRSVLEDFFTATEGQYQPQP
Procedure, shortened: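 Readout pairs a europium cryptate-labelled anti-phosphotyrosine antibody with XL665-streptavidin, measured by time-resolved fluorescence. IC50 derived from percent inhibition against untreated controls.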

[3] = target: T3, human Yes1 enzyme (Homo sapiens, UniProt P07947); assay: Yes1 enzyme inhibitory activity (time-resolved fluorometry, biotinylated peptide phosphorylation); conditions: biotinylated peptide phosphorylation, read-out: YES_IC50
T3 construct: made in house
T3 sequence (P07947 whole entry): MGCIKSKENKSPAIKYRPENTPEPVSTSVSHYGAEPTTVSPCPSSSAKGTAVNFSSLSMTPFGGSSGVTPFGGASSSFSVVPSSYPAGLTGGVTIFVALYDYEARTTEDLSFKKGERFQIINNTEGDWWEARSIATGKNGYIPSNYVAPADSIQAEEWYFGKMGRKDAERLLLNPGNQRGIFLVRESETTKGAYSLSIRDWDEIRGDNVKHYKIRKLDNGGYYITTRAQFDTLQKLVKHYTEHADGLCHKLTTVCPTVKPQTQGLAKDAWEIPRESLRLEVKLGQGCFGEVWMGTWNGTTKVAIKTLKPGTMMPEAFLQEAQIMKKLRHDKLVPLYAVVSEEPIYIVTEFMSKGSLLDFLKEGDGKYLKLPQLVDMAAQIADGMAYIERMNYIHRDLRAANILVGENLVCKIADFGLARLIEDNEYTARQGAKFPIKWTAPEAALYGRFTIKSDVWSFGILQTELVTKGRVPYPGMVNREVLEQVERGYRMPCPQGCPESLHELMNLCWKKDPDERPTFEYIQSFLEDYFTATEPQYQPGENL
Procedure, shortened: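 Inhibition was expressed against a compound-free control to give IC50, using TR-FRET read-out (Eu-cryptate anti-pTyr antibody, streptavidin-XL665).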

T1 sequence (P12931 whole entry): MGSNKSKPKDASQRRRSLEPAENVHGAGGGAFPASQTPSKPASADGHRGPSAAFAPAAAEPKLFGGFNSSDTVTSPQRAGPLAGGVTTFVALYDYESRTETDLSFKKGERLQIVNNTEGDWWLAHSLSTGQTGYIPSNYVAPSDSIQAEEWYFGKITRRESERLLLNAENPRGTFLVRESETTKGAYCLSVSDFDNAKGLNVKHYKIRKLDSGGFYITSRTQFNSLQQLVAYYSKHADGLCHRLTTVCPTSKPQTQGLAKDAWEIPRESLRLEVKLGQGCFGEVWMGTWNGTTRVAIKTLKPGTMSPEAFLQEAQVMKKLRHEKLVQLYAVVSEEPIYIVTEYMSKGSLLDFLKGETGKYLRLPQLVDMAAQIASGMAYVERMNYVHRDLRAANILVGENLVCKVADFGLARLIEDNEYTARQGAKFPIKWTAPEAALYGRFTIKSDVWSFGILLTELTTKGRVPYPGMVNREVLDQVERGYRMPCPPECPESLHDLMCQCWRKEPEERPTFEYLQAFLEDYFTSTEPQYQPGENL

SMILES | IC50 [1] [nM] | IC50 [2] [nM] | IC50 [3] [nM]
Cc1cc(Oc2ccccc2F)ccc1-n1ncc(C(=O)c2cc3cc(OC(F)F)c(N4CCN(S(C)(=O)=O)CC4)cc3[nH]2)c1N [Example 4-23-002, [5-amino-1-[4-(2-fluorophenoxy)-2-methylphenyl]pyrazol-4-yl]-[5-(difluoromethoxy)-6-(4-methylsulfonylpiperazin-1-yl)-1H-indol-2-yl]methanone] | 44 | 20 | 1.6
Cc1cc(Oc2ccccc2F)cc(F)c1-n1ncc(C(=O)c2cc3cc(OC(F)F)c(N4CCN(S(C)(=O)=O)CC4)cc3[nH]2)c1N [Example 4-23-003, [5-amino-1-[2-fluoro-4-(2-fluorophenoxy)-6-methylphenyl]pyrazol-4-yl]-[5-(difluoromethoxy)-6-(4-methylsulfonylpiperazin-1-yl)-1H-indol-2-yl]methanone] | 62 | 21 | 10
Cc1cc(Oc2ccccc2F)ncc1-n1ncc(C(=O)c2cc3cc(OC(F)F)c(N4CCN(S(C)(=O)=O)CC4)cc3[nH]2)c1N [Example 4-23-004, [5-amino-1-[6-(2-fluorophenoxy)-4-methylpyridin-3-yl]pyrazol-4-yl]-[5-(difluoromethoxy)-6-(4-methylsulfonylpiperazin-1-yl)-1H-indol-2-yl]methanone] | 48 | 18 | 5.5
Cc1cc(Oc2ccccc2F)ccc1-n1ncc(C(=O)c2cc3cc(OCC(F)F)c(N4CCN(S(C)(=O)=O)CC4)cc3[nH]2)c1N [Example 4-23-005, [5-amino-1-[4-(2-fluorophenoxy)-2-methylphenyl]pyrazol-4-yl]-[5-(2,2-difluoroethoxy)-6-(4-methylsulfonylpiperazin-1-yl)-1H-indol-2-yl]methanone] | 16 | 8.2 | 1.7
Cc1cc(Oc2ccccc2F)cc(F)c1-n1ncc(C(=O)c2cc3cc(OCC(F)F)c(N4CCN(S(C)(=O)=O)CC4)cc3[nH]2)c1N [Example 4-23-006, [5-amino-1-[2-fluoro-4-(2-fluorophenoxy)-6-methylphenyl]pyrazol-4-yl]-[5-(2,2-difluoroethoxy)-6-(4-methylsulfonylpiperazin-1-yl)-1H-indol-2-yl]methanone] | 22 | 13 | 2.7
Cc1cc(Oc2ccccc2F)ncc1-n1ncc(C(=O)c2cc3cc(OCC(F)F)c(N4CCN(S(C)(=O)=O)CC4)cc3[nH]2)c1N [Example 4-23-007, [5-amino-1-[6-(2-fluorophenoxy)-4-methylpyridin-3-yl]pyrazol-4-yl]-[5-(2,2-difluoroethoxy)-6-(4-methylsulfonylpiperazin-1-yl)-1H-indol-2-yl]methanone] | 16 | 5.5 | 1.3
Cc1cc(Oc2c(F)cccc2F)ncc1-n1ncc(C(=O)c2cc3cc(OCC(F)F)c(NC4COC4)cc3[nH]2)c1N [Example 4-23-008, {5-amino-1-[6-(2,6-difluorophenoxy)-4-methylpyridin-3-yl]pyrazol-4-yl}-[5-(2,2-difluoroethoxy)-6-(oxetan-3-ylamino)-1H-indol-2-yl]methanone] | 23 | 4.6 | 3.3
Cc1cc(Oc2ccccc2F)ccc1-n1ncc(C(=O)c2cc3cc(OC(F)F)c(NC4COC4)cc3[nH]2)c1N [Example 4-23-009, [5-amino-1-[4-(2-fluorophenoxy)-2-methylphenyl]pyrazol-4-yl]-[5-(difluoromethoxy)-6-(oxetan-3-ylamino)-1H-indol-2-yl]methanone] | 22 | 8.9 | 3.2
Cc1cc(Oc2ccccc2F)ccc1-n1ncc(C(=O)c2cc3cc(OC(F)F)c(NC4CCN(S(C)(=O)=O)CC4)cc3[nH]2)c1N [Example 4-23-010, [5-amino-1-[4-(2-fluorophenoxy)-2-methylphenyl]pyrazol-4-yl]-[5-(difluoromethoxy)-6-[(1-methylsulfonylpiperidin-4-yl)amino]-1H-indol-2-yl]methanone] | 34 | 25 | 7.2

Next, values leading:

IC50 [1] [nM] | IC50 [2] [nM] | IC50 [3] [nM] | SMILES
63 | 19 | 7.6 | Cc1cc(Oc2ccccc2F)cc(F)c1-n1ncc(C(=O)c2cc3cc(OC(F)F)c(NC4COC4)cc3[nH]2)c1N [Example 4-23-011, [5-amino-1-[2-fluoro-4-(2-fluorophenoxy)-6-methylphenyl]pyrazol-4-yl]-[5-(difluoromethoxy)-6-(oxetan-3-ylamino)-1H-indol-2-yl]methanone]
70 | 31 | 14 | Cc1cc(Oc2ccccc2F)cc(F)c1-n1ncc(C(=O)c2cc3cc(OC(F)F)c(NC4CCN(S(C)(=O)=O)CC4)cc3[nH]2)c1N [Example 4-23-012, [5-amino-1-[2-fluoro-4-(2-fluorophenoxy)-6-methylphenyl]pyrazol-4-yl]-[5-(difluoromethoxy)-6-[(1-methylsulfonylpiperidin-4-yl)amino]-1H-indol-2-yl]methanone]
40 | 4.6 | 1.6 | Cc1cc(Oc2ccccc2F)ncc1-n1ncc(C(=O)c2cc3cc(OC(F)F)c(NC4COC4)cc3[nH]2)c1N [Example 4-23-013, [5-amino-1-[6-(2-fluorophenoxy)-4-methylpyridin-3-yl]pyrazol-4-yl]-[5-(difluoromethoxy)-6-(oxetan-3-ylamino)-1H-indol-2-yl]methanone]
22 | 9.2 | 3.5 | Cc1cc(Oc2c(F)cccc2F)ncc1-n1ncc(C(=O)c2cc3cc(OC(F)F)c(NC4COC4)cc3[nH]2)c1N [Example 4-23-014, [5-amino-1-[6-(2,6-difluorophenoxy)-4-methylpyridin-3-yl]pyrazol-4-yl]-[5-(difluoromethoxy)-6-(oxetan-3-ylamino)-1H-indol-2-yl]methanone]
49 | 23 | 5.4 | Cc1cc(Oc2c(F)cccc2F)ncc1-n1ncc(C(=O)c2cc3cc(OC(F)F)c(NC4CCN(S(C)(=O)=O)CC4)cc3[nH]2)c1N [Example 4-23-015, [5-amino-1-[6-(2,6-difluorophenoxy)-4-methylpyridin-3-yl]pyrazol-4-yl]-[5-(difluoromethoxy)-6-[(1-methylsulfonylpiperidin-4-yl)amino]-1H-indol-2-yl]methanone]
21 | 5.4 | 0.94 | Cc1cc(Oc2ccccc2F)ccc1-n1ncc(C(=O)c2cc3cc(OCC(F)F)c(NC4COC4)cc3[nH]2)c1N [Example 4-23-016, [5-amino-1-[4-(2-fluorophenoxy)-2-methylphenyl]pyrazol-4-yl]-[5-(2,2-difluoroethoxy)-6-(oxetan-3-ylamino)-1H-indol-2-yl]methanone]
28 | 13 | 5.1 | Cc1cc(Oc2ccccc2F)ccc1-n1ncc(C(=O)c2cc3cc(OCC(F)F)c(NC4CCN(S(C)(=O)=O)CC4)cc3[nH]2)c1N [Example 4-23-017, [5-amino-1-[4-(2-fluorophenoxy)-2-methylphenyl]pyrazol-4-yl]-[5-(2,2-difluoroethoxy)-6-[(1-methylsulfonylpiperidin-4-yl)amino]-1H-indol-2-yl]methanone]
18 | 6.5 | 1.4 | Cc1cc(Oc2ccccc2F)ccc1-n1ncc(C(=O)c2cc3cc(OCC(F)F)c(NC4CN(S(C)(=O)=O)C4)cc3[nH]2)c1N [Example 4-23-018, [5-amino-1-[4-(2-fluorophenoxy)-2-methylphenyl]pyrazol-4-yl]-[5-(2,2-difluoroethoxy)-6-[(1-methylsulfonylazetidin-3-yl)amino]-1H-indol-2-yl]methanone]
28 | 6.4 | 1.8 | Cc1cc(Oc2ccccc2F)cc(F)c1-n1ncc(C(=O)c2cc3cc(OCC(F)F)c(NC4COC4)cc3[nH]2)c1N [Example 4-23-019, [5-amino-1-[2-fluoro-4-(2-fluorophenoxy)-6-methylphenyl]pyrazol-4-yl]-[5-(2,2-difluoroethoxy)-6-(oxetan-3-ylamino)-1H-indol-2-yl]methanone]
30 | 3.8 | 1.4 | Cc1cc(Oc2ccccc2F)ncc1-n1ncc(C(=O)c2cc3cc(OCC(F)F)c(NC4COC4)cc3[nH]2)c1N [Example 4-23-020, [5-amino-1-[6-(2-fluorophenoxy)-4-methylpyridin-3-yl]pyrazol-4-yl]-[5-(2,2-difluoroethoxy)-6-(oxetan-3-ylamino)-1H-indol-2-yl]methanone]
21 | 11 | 3.6 | Cc1cc(Oc2c(F)cccc2F)ncc1-n1ncc(C(=O)c2cc3cc(OCC(F)F)c(NC4CCN(S(C)(=O)=O)CC4)cc3[nH]2)c1N [Example 4-23-021, [5-amino-1-[6-(2,6-difluorophenoxy)-4-methylpyridin-3-yl]pyrazol-4-yl]-[5-(2,2-difluoroethoxy)-6-[(1-methylsulfonylpiperidin-4-yl)amino]-1H-indol-2-yl]methanone]
24 | 8 | 1.3 | Cc1cc(Oc2c(F)cccc2F)ncc1-n1ncc(C(=O)c2cc3cc(OCC(F)F)c(NC4CN(S(C)(=O)=O)C4)cc3[nH]2)c1N [Example 4-23-022, {5-amino-1-[6-(2,6-difluorophenoxy)-4-methylpyridin-3-yl]pyrazol-4-yl}-[5-(2,2-difluoroethoxy)-6-[(1-methylsulfonylazetidin-3-yl)amino]-1H-indol-2-yl]methanone]
